The record followed here is patent publication US8946203B2, “Benzodioxane inhibitors of leukotriene production” (Boehringer Ingelheim International GmbH, priority 2012, dated 2015).

Test [1] has as its target T1, human LTA4 hydrolase (Homo sapiens, UniProt P09960).
T1 sequence (P09960 1-611): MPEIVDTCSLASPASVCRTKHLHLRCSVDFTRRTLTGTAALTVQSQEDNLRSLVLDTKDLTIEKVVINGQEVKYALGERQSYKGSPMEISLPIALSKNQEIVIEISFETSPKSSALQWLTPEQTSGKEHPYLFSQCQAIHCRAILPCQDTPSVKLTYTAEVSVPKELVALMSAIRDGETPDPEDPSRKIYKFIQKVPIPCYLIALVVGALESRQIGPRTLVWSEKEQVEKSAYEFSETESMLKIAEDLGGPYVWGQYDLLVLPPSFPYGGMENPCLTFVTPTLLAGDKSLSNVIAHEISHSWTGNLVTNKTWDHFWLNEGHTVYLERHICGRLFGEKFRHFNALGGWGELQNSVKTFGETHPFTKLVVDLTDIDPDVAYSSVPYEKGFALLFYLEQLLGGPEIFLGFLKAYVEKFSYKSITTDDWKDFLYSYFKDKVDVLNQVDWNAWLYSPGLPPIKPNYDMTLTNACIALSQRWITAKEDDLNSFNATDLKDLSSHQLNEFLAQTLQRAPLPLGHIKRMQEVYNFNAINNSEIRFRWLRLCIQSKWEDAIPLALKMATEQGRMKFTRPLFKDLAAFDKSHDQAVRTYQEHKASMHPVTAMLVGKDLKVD
In words: LTA4H Enzyme assay (cleavage of Arg-AMC, fluorescence). Format: biochemical. In outline: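 Peptidase activity of human LTA4H (1 nM final) on Arg-AMC (50 μM final), with compound, 1 h at room temperature. Buffer: 50 mM Tris-HCl pH 7.5, 100 mM KCl, 0.5% BSA.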

The test system of test [2] is synthesis of LTB4 in human whole blood. Description: human whole blood (HWB) assay, LTB4 production inhibition after calcimycin stimulation. Type of test: cell-based. The note with it: heparinized human whole blood, calcimycin 20 μM, plasma LTB4 by HTRF. In outline:
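Heparinized human whole blood preincubated with compound 15 min at 37 °C, then stimulated with 20 μM (final) calcimycin for 30 min at 37 °C. Plasma LTB4 measured by antibody-based HTRF; IC50 reported.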
In general terms: In TR-FRET formats the signal depends on donor and acceptor labels being close together.

Setting [3] is: LTA4H Enzyme 1 nM, Arg-AMC substrate 50 μM, room temperature 1 h, fluorescence, read-out: IC50 values of LTA4H Enzyme assay.

Each structure is given as a SMILES string. Read-outs that look alike come from different tables or passages of the source.

For the compound `O=C(NCCO)C1CCN(Cc2ccc(C3COc4ccccc4O3)cc2)CC1` (racemic) [Example 52, 1-[4-(2,3-dihydro-1,4-benzodioxin-2-yl)benzyl]-N-(2-hydroxyethyl)piperidine-4-carboxamide], the IC50 in test [1] (setting [3]) was determined as 0.75 nM; in test [2], 145 nM.

Regarding `c1cnc2c(c1)OC[C@H](c1ccc(CN3CCCCCC3)cc1)O2` [Example 139, (3S)-3-[4-(azepan-1-ylmethyl)phenyl]-2,3-dihydro[1,4]dioxino[2,3-b]pyridine], the half-inhibitory concentration (IC50) in test [1] (setting [3]) was found to be 0.1 nM; in test [2] it was 13 nM.

Turning to `c1cnc2c(c1)OC[C@H](c1ccc(CN3[C@H]4CC[C@@H]3CC4)cc1)O2` [Example 145, (3S)-3-{4-[(1s,4s)-7-azabicyclo[2.2.1]hept-7-ylmethyl]phenyl}-2,3-dihydro[1,4]dioxino[2,3-b]pyridine], the IC50 was 0.09 nM in test [1] and 28 nM in test [2].

As to `O=C(NC1CCN(Cc2ccc([C@H]3COc4cccnc4O3)cc2)CC1)C1CCOCC1` [Example 290, N-[1-[[4-[(3S)-2,3-dihydro-[1,4]dioxino[2,3-b]pyridin-3-yl]phenyl]methyl]-4-piperidyl]tetrahydropyran-4-carboxamide], the IC50 in test [1] (setting [3]) is 0.2 nM; in test [2], 48 nM.

As to `CCN(CC)Cc1ccc([C@H]2COc3cccnc3O2)cc1` [Example 141, N-{4-[(3S)-2,3-dihydro[1,4]dioxino[2,3-b]pyridin-3-yl]benzyl}-N-ethylethanamine], the results for the IC50 in test [1] (setting [3]) and in test [2] were 0.26 nM and 33 nM, respectively.

As for `NC(=O)c1nnc2n1CCN(Cc1ccc([C@H]3COc4cccnc4O3)cc1)CC2` [Example 245, 6-[(S)-4-(2,3-dihydro-[1,4]dioxino[2,3-b]pyridin-3-yl)-benzyl]-5,6,7,8-tetrahydro-4H-1,2,3a,6-tetraaza-azulene-3-carboxylic acid amide], the results for the half-inhibitory concentration (IC50) in test [1] (setting [3]) and in test [2] were 0.32 nM and 130 nM, respectively.

Turning to `O=C(O)[C@@H]1CCN(Cc2ccc([C@H]3COc4ccccc4O3)cc2)C1` [Example 214, (3R)-1-{4-[(2S)-2,3-dihydro-1,4-benzodioxin-2-yl]benzyl}pyrrolidine-3-carboxylic acid], the 50% inhibitory concentration (IC50) in test [1] (setting [3]) came out at 0.47 nM; in test [2], 169 nM.

On to `NC(=O)N[C@H]1C[C@H]2CC[C@@H](C1)N2Cc1ccc([C@H]2COc3cccnc3O2)cc1` [Example 259, {(endo)-8-[(S)-4-(2,3-Dihydro-[1,4]dioxino[2,3-b]pyridin-3-yl)-benzyl]-8-aza-bicyclo[3.2.1]oct-3-yl}-urea], for which the IC50 came out at 0.3 nM in test [1] and 790 nM in test [2].

Turning to `CN[C@H](C)C(=O)NC1CCN(Cc2ccc([C@H]3COc4cccnc4O3)cc2)CC1` [Example 261, (R)-N-{1-[(S)-4-(2,3-Dihydro-[1,4]dioxino[2,3-b]pyridin-3-yl)-benzyl]-piperidin-4-yl}-2-methylamino-propionamide], the IC50 in test [1] (setting [3]) turned out to be 2.5 nM; in test [2], 260 nM.

For `O=C(O)CCCC1CCN(Cc2ccc(C3COc4ccccc4O3)cc2)CC1` (racemic) [Example 26, 4-{1-[4-(2,3-dihydro-1,4-benzodioxin-2-yl)benzyl]piperidin-4-yl}butanoic acid], the IC50 amounted to 0.43 nM in test [1] (setting [3]) and 308 nM in test [2].

On to `CC(=O)N1C[C@@H]2CC[C@H]1CN2Cc1ccc([C@H]2COc3cccnc3O2)cc1` [Example 264, 1-{(1S,4S)-5-[(S)-4-(2,3-Dihydro-[1,4]dioxino[2,3-b]pyridin-3-yl)-benzyl]-2,5-diaza-bicyclo[2.2.2]oct-2-yl}-ethanone], for which the values for the IC50 in test [1] (setting [3]) and in test [2] were 0.09 nM and 17 nM, respectively.

On to `NC(=O)c1nnc2n1CCN(Cc1ccc([C@H]3COc4cccnc4O3)cc1)C2` [Example 241, 7-[(S)-4-(2,3-Dihydro-[1,4]dioxino[2,3-b]pyridin-3-yl)-benzyl]-5,6,7,8-tetrahydro-[1,2,4]triazolo[4,3-a]pyrazine-3-carboxylic acid amide], for which the IC50 was 0.5 nM in test [1] (setting [3]) and 110 nM in test [2].

With `CCN(C)Cc1ccc([C@H]2COc3cccnc3O2)cc1` [Example 140, N-{4-[(3S)-2,3-dihydro[1,4]dioxino[2,3-b]pyridin-3-yl]benzyl}-N-methylethanamine], the results for the concentration for half-maximal inhibition (IC50) in test [1] (setting [3]) and in test [2] were 0.38 nM and 33 nM, respectively.

As to `NC(=O)N[C@@H]1C[C@H]2CC[C@@H](C1)N2Cc1ccc([C@H]2COc3cccnc3O2)cc1` [Example 273, {(exo)-8-[(S)-4-(2,3-Dihydro-[1,4]dioxino[2,3-b]pyridin-3-yl)-benzyl]-8-aza-bicyclo[3.2.1]oct-3-yl}-urea], the IC50 in test [1] was 0.16 nM; in test [2], 110 nM.

`COCC(=O)NC1CCN(Cc2ccc([C@H]3COc4ccccc4O3)cc2)CC1` [Example 219, N-(1-{4-[(2S)-2,3-dihydro-1,4-benzodioxin-2-yl]benzyl}piperidin-4-yl)-2-methoxyacetamide]: the IC50 was 0.49 nM in test [1] (setting [3]) and 149 nM in test [2].

In the case of `CN(CCc1ccccn1)Cc1ccc([C@H]2COc3cccnc3O2)cc1` [Example 138, N-{4-[(3S)-2,3-dihydro[1,4]dioxino[2,3-b]pyridin-3-yl]benzyl}-N-methyl-2-(pyridin-2-yl)ethanamine], the IC50 in test [1] (setting [3]) was 0.18 nM; in test [2], 76 nM.

On to `c1cnc2c(c1)OC[C@H](c1ccc(CN3CCCC3)cc1)O2` [Example 126, (3S)-3-[4-(pyrrolidin-1-ylmethyl)phenyl]-2,3-dihydro[1,4]dioxino[2,3-b]pyridine], for which the IC50 in test [1] (setting [3]) worked out at 0.18 nM; in test [2], 32 nM.

In the case of `O=C1OCCCN1C1CCN(Cc2ccc([C@H]3COc4cccnc4O3)cc2)CC1` [Example 291, 3-{1-[(S)-4-(2,3-Dihydro-[1,4]dioxino[2,3-b]pyridin-3-yl)-benzyl]-piperidin-4-yl}-[1,3]oxazinan-2-one], the results for the IC50 in test [1] (setting [3]) and in test [2] were 0.19 nM and 56 nM, respectively.

In the case of `O=C1CCCN1CC1CCCN(Cc2ccc(C3COc4ccccc4O3)cc2)C1` (racemic) [Example 10, 1-({1-[4-(2,3-dihydro-1,4-benzodioxin-2-yl)benzyl]piperidin-3-yl}methyl)pyrrolidin-2-one], the results for the IC50 in test [1] (setting [3]) and in test [2] were 0.75 nM and 352 nM, respectively.

Turning to `NC(=O)N1CC2(CCN(Cc3ccc([C@H]4COc5cccnc5O4)cc3)CC2)c2ccccc21` [Example 282], the IC50 worked out at 0.17 nM in test [1] and 61 nM in test [2].

In the case of `NC(=O)NCC1CCN(Cc2ccc([C@H]3COc4cccnc4O3)cc2)CC1` [Example 283, {1-[(S)-4-(2,3-Dihydro-[1,4]dioxino[2,3-b]pyridin-3-yl)-benzyl]-piperidin-4-ylmethyl}-urea], the results for the IC50 in test [1] (setting [3]) and in test [2] were 0.36 nM and 540 nM, respectively.

In the case of `O=C1CCCN1CC1CCN(Cc2ccc([C@H]3COc4ccccc4O3)cc2)CC1` [Example 99, 1-[(1-{4-[(2S)-2,3-dihydro-1,4-benzodioxin-2-yl]benzyl}piperidin-4-yl)methyl]pyrrolidin-2-one], the results for the IC50 in test [1] (setting [3]) and in test [2] were 0.37 nM and 95 nM, respectively.

`CNC(=O)C1CCN(Cc2ccc(C3COc4ccccc4O3)cc2)CC1` (racemic) [Example 25, 1-[4-(2,3-Dihydro-benzo[1,4]dioxin-2-yl)-benzyl]-piperidine-4-carboxylic acid methylamide]: the values for the IC50 in test [1] (setting [3]) and in test [2] were 0.76 nM and 294 nM, respectively.

The IC50 is the midpoint of a concentration-inhibition curve.
